# Source: patent publication US9586965B2, “Pyrrolo[2,3-d]pyrimidine compounds as inhibitors of protein kinases” (ACEA BIOSCIENCES INC., priority 2012, dated 2017)
# Where “and” joins values, the source holds several entries; their conditions need not be identical. Equal entries are not always repeated. Where two headings read alike, the source gives them in different places.
# How the values were obtained:
# [1] = molecular target: EGFR (pY1068) in A431 cell (WT) (Homo sapiens (Human), UniProt P00533); assay: pEGFR sandwich ELISA assay (Examples B-2, B-3, Table 21); format: cell-based; settings: read-out: IC50 (uM) A431 WT (EGF stimulation)
# human wt BTK = human wt BTK (Homo sapiens (Human), UniProt Q06187); assay: ClariCELL BTK cell-based assay; settings: Cell-based Assays (CAI) IC50(μM) BTK, HEK293 transfected with human wt BTK; 2 hours; repeat runs
# Source text: (§3) Protocol for ClariCELL™ JAK3 and BTK Assays is described below: • HEK293 human embryonic kidney cells were transiently transfected with either human wt BTK, human wt JAK3, or kinase-dead human JAK3 (for JAK3 negative controls).
# human wt JAK3 = human wt JAK3 (Homo sapiens (Human), UniProt P52333); assay: ClariCELL JAK3 cell-based assay; settings: Cell-based Assays (CAI) IC50(μM) JAK3, HEK293 transfected with human wt JAK3; 2 hours; repeat runs
# Source text: as §3
# [2] = molecular target: EGFR (pY1068) in H1975 cell (T790M/L858R) (Homo sapiens (Human), UniProt P00533, L858R/T790M); assay: pEGFR sandwich ELISA assay (Examples B-2, B-3, Table 21); format: cell-based; settings: for IC50: read-out: IC50 (uM) H1975 T790M/L858R (no EGF stimulation)
# JAK3 = JAK3 (Homo sapiens (Human), UniProt P52333); assay: HotSpot kinase assay; format: biochemical; settings: Enzymatic Assays; Table 22; unit inferred
# Experimental: (§1) Assay Description. In vitro profiling protein kinases was performed using the “HotSpot” assay platform. Briefly, specific kinase/substrate pairs along with required cofactors were prepared in reaction buffer. Compounds were delivered into the reaction, followed 15-20 minutes later by addition of a mixture of ATP (Sigma, St. Louis Mo.) and ^33P ATP (Perkin Elmer, Waltham Mass.) to a final concentration of 10 μM. […] IC50 values and curve fits were obtained using Prism (GraphPad Software).
# (§2) Reaction Conditions: Buffer Conditions: 20 mM Hepes (pH 7.5), 10 mM MgCl2, 1 mM EGTA, 0.02% Brij35, 0.02 mg/mL BSA, 0.1 mM Na3VO4, 2 mM DTT, and 1% DMSO. ATP concentration: 10 μM. Reaction Time: 2 hours. […] All kinase reactions were performed at 10 uM ATP. Test concentrations are provided below in molar units (M).
# BTK = BTK (Homo sapiens (Human), UniProt Q06187); assay: HotSpot kinase assay; format: biochemical; settings: Enzymatic Assays; Table 22; unit inferred
# Experimental: as §1, §2
# JAK2 = JAK2 (Homo sapiens (Human), UniProt O60674); assay: HotSpot kinase assay; format: biochemical; settings: Enzymatic Assays; Table 22; unit inferred
# Experimental: as §1, §2
# [3] = tested on: A431 (WT) human skin epidermoid carcinoma xenograft; settings: for Tumor volume: 100 mpk PO QD
# Experimental: Each mouse was inoculated subcutaneously at the right flank with H1975 cells (5×10^6), HCC827 (5×10^6) and A431 (5×10^6) respectively in 0.2 ml of medium for tumor development. The treatments were started when the tumor size reached approximately 200-250 mm^3. The testing articles were administrated to the mice according to the predetermined regimen as shown in the experimental design table.
# All the procedures related to animal handling, care and the treatment in this study were performed according to the guidelines approved by the Institutional Animal Care and Use Committee (IACUC) following the guidance of the Association for Assessment and Accreditation of Laboratory Animal Care (AAALAC). At the time of routine monitoring, the animals were checked for any effects of tumor growth and treatments on normal behavior such as mobility, food and water consumption (by observation), body weight gain/loss (body weights were measured twice weekly), eye/hair matting and any other abnormal effect. Death and observed clinical signs were recorded on the basis of the numbers of animals within each subset.
# The major endpoint was to see if the tumor growth can be delayed or mice can be cured. Tumor size was measured twice weekly in two dimensions using a caliper, and the volume was expressed in mm^3 using the formula: V=0.5 a×b^2 where a and b are the long and short diameters of the tumor, respectively. The tumor size was then used for calculations of both T-C and T/C values. T-C was calculated with T as the median time (in days) required for the treatment group tumors to reach a predetermined size (e.g., 1,000 mm^3), and C as the median time (in days) for the control group tumors to reach the same size. The T/C value (in percent) was an indication of antitumor effectiveness; T and C were the mean volume of the treated and control groups, respectively, on a given day. Tumor weight was measured at the study termination. The T/C value (in percent) was calculated where T and C were the mean tumor weights of the treated and control groups, respectively.
# Chain of EGFR (pY1068) in H1975 cell (T790M/L858R) (P00533 25-1210 T790M/L858R): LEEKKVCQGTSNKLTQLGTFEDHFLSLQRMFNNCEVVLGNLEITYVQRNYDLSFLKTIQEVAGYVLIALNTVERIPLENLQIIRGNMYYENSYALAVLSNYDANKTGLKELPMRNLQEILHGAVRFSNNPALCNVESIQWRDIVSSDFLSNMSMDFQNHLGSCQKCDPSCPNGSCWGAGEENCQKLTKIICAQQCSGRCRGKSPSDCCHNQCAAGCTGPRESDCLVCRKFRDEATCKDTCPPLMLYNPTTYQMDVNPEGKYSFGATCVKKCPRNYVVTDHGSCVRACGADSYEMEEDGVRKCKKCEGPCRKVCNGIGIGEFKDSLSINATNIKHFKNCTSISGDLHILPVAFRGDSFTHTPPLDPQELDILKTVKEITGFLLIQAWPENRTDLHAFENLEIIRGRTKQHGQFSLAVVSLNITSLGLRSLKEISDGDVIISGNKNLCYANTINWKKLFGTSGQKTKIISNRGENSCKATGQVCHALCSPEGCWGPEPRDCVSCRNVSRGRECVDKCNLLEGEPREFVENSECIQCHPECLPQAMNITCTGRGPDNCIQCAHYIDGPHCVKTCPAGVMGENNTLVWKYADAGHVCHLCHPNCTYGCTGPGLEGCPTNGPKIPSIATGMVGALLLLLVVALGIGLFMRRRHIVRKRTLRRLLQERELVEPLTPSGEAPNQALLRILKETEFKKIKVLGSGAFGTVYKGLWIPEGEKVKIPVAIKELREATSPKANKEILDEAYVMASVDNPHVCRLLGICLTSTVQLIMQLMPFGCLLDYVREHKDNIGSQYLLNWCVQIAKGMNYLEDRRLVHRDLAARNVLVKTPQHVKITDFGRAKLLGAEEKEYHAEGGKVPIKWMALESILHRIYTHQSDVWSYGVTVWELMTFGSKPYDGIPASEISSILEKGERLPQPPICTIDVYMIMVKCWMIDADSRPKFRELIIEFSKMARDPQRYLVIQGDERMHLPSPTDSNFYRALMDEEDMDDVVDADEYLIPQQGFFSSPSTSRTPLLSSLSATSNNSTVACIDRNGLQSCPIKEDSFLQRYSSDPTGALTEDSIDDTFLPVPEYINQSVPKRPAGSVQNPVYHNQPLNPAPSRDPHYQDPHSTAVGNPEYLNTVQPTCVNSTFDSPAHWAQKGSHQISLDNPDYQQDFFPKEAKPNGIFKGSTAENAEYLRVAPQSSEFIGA
# Chain of EGFR (pY1068) in A431 cell (WT) (P00533 25-1210): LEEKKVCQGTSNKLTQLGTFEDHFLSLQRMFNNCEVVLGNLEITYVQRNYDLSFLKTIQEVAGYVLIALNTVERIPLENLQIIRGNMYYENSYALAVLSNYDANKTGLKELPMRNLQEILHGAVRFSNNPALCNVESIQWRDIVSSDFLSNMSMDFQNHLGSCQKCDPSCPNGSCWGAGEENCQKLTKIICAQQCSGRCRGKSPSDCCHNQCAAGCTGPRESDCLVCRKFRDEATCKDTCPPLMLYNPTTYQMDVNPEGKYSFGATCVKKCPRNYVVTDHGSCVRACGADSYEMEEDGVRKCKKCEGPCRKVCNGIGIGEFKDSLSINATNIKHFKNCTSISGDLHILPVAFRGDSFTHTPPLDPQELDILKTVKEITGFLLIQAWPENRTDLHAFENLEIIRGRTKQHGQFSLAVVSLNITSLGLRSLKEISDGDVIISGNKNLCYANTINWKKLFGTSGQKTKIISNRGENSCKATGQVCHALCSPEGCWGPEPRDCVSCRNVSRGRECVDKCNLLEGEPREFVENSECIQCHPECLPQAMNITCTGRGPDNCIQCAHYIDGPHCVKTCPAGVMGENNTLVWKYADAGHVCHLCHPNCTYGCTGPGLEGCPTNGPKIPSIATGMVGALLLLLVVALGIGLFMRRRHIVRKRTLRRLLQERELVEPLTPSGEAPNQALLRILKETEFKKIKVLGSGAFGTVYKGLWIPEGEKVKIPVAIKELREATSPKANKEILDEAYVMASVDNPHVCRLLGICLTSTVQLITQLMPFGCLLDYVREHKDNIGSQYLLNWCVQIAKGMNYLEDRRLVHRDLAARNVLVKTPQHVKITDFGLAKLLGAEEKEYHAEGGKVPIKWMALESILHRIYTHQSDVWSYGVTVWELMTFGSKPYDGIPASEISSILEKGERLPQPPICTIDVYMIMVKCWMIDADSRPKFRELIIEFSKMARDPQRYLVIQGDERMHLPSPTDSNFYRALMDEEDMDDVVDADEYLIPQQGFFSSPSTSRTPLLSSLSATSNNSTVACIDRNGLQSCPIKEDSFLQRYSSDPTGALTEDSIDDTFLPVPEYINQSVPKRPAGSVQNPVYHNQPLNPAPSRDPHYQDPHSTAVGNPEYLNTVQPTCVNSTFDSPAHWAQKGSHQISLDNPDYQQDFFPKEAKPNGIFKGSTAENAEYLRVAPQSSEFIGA
# Chain of human wt BTK (Q06187 whole entry): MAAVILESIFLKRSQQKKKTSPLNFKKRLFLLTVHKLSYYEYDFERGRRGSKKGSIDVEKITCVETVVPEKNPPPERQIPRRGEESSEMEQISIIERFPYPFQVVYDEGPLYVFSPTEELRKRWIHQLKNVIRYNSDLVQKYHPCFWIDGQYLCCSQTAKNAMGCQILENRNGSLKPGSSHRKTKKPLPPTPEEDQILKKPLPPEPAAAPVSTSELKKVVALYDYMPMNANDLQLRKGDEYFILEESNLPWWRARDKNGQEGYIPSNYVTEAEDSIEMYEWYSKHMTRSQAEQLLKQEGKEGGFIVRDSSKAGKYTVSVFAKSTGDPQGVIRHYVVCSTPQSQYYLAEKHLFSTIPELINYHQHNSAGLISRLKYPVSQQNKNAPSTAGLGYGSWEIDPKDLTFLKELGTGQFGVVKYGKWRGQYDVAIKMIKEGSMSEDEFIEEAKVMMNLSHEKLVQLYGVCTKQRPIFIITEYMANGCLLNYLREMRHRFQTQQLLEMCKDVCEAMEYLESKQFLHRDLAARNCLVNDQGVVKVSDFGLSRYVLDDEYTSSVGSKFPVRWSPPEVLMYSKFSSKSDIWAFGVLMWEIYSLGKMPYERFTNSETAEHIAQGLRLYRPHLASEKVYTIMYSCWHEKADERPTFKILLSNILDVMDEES
# Chain of human wt JAK3 (P52333 whole entry): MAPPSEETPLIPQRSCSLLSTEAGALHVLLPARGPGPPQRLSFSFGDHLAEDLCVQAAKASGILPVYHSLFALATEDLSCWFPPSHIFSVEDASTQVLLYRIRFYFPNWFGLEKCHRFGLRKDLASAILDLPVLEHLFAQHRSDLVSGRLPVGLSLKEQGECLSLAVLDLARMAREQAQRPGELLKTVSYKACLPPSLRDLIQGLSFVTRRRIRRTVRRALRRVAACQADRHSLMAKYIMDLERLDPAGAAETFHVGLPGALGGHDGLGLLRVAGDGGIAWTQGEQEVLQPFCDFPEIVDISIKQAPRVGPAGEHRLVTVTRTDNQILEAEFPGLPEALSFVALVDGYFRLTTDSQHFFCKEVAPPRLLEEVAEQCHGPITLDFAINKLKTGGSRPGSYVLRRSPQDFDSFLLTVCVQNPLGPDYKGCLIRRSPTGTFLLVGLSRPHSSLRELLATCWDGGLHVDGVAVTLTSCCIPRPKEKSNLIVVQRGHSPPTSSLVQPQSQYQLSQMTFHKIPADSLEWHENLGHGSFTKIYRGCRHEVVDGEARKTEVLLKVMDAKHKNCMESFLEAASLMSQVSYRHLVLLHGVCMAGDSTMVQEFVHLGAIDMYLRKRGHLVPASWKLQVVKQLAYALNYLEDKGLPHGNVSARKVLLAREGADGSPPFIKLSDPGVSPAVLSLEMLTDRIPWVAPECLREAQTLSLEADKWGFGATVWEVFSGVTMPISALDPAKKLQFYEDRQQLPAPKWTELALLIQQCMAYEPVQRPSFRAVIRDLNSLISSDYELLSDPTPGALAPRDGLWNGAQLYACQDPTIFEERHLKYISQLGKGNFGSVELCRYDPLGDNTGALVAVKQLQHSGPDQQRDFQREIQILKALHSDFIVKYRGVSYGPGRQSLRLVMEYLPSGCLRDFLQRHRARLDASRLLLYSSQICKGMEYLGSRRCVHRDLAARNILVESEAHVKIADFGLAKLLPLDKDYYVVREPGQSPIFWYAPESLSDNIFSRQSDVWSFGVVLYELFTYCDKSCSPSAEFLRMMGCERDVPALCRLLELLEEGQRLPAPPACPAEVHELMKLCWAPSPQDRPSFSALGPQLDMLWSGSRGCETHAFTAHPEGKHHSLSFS
# Chain of BTK (Q06187 whole entry): as the sequence (Q06187 whole entry) above
# Chain of JAK2 (O60674 809-1132): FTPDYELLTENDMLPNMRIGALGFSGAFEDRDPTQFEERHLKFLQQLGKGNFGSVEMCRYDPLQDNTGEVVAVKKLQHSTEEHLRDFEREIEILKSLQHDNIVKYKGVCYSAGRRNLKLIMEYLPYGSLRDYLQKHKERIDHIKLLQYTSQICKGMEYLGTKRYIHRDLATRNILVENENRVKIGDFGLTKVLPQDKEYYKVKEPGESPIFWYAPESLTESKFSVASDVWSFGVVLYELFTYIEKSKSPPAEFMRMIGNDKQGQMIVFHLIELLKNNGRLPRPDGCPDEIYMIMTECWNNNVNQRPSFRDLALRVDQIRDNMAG
# Chain of JAK3 (P52333 781-1124): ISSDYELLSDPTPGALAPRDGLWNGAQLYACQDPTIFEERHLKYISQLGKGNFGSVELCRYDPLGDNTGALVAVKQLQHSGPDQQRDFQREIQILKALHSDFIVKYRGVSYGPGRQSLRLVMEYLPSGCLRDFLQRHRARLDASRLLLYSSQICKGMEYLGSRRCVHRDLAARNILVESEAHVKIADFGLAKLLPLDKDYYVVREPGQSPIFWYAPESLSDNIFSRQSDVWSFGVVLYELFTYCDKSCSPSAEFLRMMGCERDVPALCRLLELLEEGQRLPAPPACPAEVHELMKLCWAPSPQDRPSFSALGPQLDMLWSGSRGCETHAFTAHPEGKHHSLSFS
SMILES,IC50 [1] [µM],Selectivity A431/H1975 [2],IC50 [2] [µM],other results
"C=CC(=O)Nc1cccc(Oc2nc(Nc3ccc(N4CCN(C)CC4)nc3)nc3[nH]ccc23)c1 [Compound 2, N-(3-(2-(6-(4-methylpiperazin-1-yl)pyridin-3-ylamino)-7H-pyrrolo[2,3-d]pyrimidin-4-yloxy)phenyl)acrylamide]",0.3,300.00,0.001,IC50 (human wt BTK): 0.012 µM and 0.059 µM; IC50 (human wt JAK3): 0.2 µM and 0.36 µM; IC50 (JAK3): 0.0365 nM; IC50 (BTK): 0.362 nM; IC50 (JAK2): 2060 nM
"C=CC(=O)Nc1cccc(Oc2nc(Nc3ccc(N4CCN(C)CC4)cc3)nc3c2ccn3CO)c1 [Compound 4, N-(3-((7-(hydroxymethyl)-2-((4-(4-methylpiperazin-1-yl)phenyl)amino)-7H-pyrrolo[2,3-d]pyrimidin-4-yl)oxy)phenyl)acrylamide]",10.9,162.69,0.067,
"C=CC(=O)Nc1cccc(Oc2nc(Nc3ccc(N4CCN(C)CC4)nc3)nc3c2ccn3CO)c1 [Compound 5, N-(3-(7-(hydroxymethyl)-2-(6-(4-methylpiperazin-1-yl)pyridin-3-ylamino)-7H-pyrrolo[2,3-d]pyrimidin-4-yloxy)phenyl)acrylamide]",27.5,113.17,0.243,
COc1cc2ncnc(Nc3ccc(F)c(Cl)c3)c2cc1OCCCN1CCOCC1 [Gefitinib],,,,"T-C (days) at 300 mm^3 ([3]; 100 mg/kg po qd): >14 days; T/C (%) ([3]; 100 mg/kg po qd): 8.7%; Tumor Weight (g) at day 23(14) ([3]; 100 mg/kg po qd): 0.13 ± 0.03 g; Mouse Weight (g) at day 25(14) ([3]; 100 mg/kg po qd, Mean ± SEM): 21.56 ± 0.51 g; Tumor Size (mm^3) at day 25(14) ([3]; 100 mg/kg po qd, Mean ± SEM, Table 16): 154 ± 33 mm^3; Tumor volume ([3]; day 11, Mean ± SEM): 239.83 ± 23.30 mm^3; Tumor volume ([3]; day 18, Mean ± SEM): 139.70 ± 26.94 mm^3; Tumor volume ([3]; day 21, Mean ± SEM): 139.70 ± 22.07 mm^3; Tumor volume ([3]; day 25, Mean ± SEM): 154.79 ± 32.62 mm^3"

# The next lines start with results.
IC50 [1] [µM],Selectivity A431/H1975 [2],IC50 [2] [µM],SMILES,other results
9.27,232.91,0.0398,"C=CC(=O)Nc1cccc(Oc2nc(Nc3ccc(N4CCN(C)CC4)c(F)c3)nc3c2ccn3CO)c1 [Compound 6, N-(3-(2-(3-fluoro-4-(4-methylpiperazin-1-yl)phenylamino)-7-(hydroxymethyl)-7H-pyrrolo[2,3-d]pyrimidin-4-yloxy)phenyl)acrylamide]",
> 20,,12.4,"C=CC(=O)Nc1cccc(Oc2nc(Nc3ccc(N4CCN(C)CC4)cc3)nc3c2ccn3CCF)c1 [Compound 7, N-(3-(7-(2-fluoroethyl)-2-(4-(4-methylpiperazin-1-yl)phenylamino)-7H-pyrrolo[2,3-d]pyrimidin-4-yloxy)phenyl)acrylamide]",
2.02,92.95,0.0217,"C=CC(=O)Nc1cccc(Oc2nc(Nc3ccc(NC4CN(CCF)C4)cc3OC)nc3[nH]ccc23)c1 [Compound 34, N-(3-(2-(4-(1-(2-fluoroethyl)azetidin-3-ylamino)-2-methoxyphenylamino)-7H-pyrrolo[2,3-d]pyrimidin-4-yloxy)phenyl)acrylamide]",
